What was measured:
Design in all cases: species or system AML cell lines (8); Primary HTS, single concentration about 10 uM, Cell Titer Glo viability; log10 luminescence, per cent inhibition relative to cycloheximide control
Details in all cases: 72 h, relative to cycloheximide control, log10 luminescence; inhibitor
MV4-11 = test system: MV4-11
M07e = test system: M07e
CMK = test system: CMK
CHRF288-11 = test system: CHRF288-11
CMS = test system: CMS
U937 = test system: U937
MOLM-13 = test system: MOLM-13
ML-2 = test system: ML-2

| SMILES | MV4-11 %inh (MV4-11) | M07e %inh (M07e) | CMK %inh (CMK) | CHRF288-11 %inh (CHRF288-11) | CMS %inh (CMS) | U937 %inh (U937) | MOLM-13 %inh (MOLM-13) | ML-2 %inh (ML-2) |
| --- | --- | --- | --- | --- | --- | --- | --- | --- |
| Nc1c(C(=O)c2cccc(-c3cccnc3)c2)cnn1-c1ccc(F)cc1 [SJ000581038-1] | 1.728% | 5.379% | -3.194% | -0.1911% | 0.2916% | 0.8257% | 1.631% | 2.13% |
| O=c1c(Oc2ccc(F)cc2F)cc2cnc(NC3CCOCC3)nc2n1C1CC1 [SJ000581039-1] | 3.055% | 4.212% | 4.979% | 6.117% | 3.291% | -0.2909% | 0.2345% | 0.3273% |
| Cn1cc(C2=C(c3c([S+](C)[O-])n(C)c4ccccc34)C(=O)NC2=O)c2ccccc21 (stereo not shown) [SJ000581040-1] | 0.5816% | 1.342% | -2.072% | 12.43% | 0.8019% | 0.5237% | -1.878% | 2.43% |
| Cn1cc(C2=C(c3cn(CCO)c4ccccc34)C(=O)NC2=O)c2ccccc21 [SJ000581041-1] | 18.13% | 13.99% | 80.06% | 72.88% | 9.772% | 14.77% | 54.73% | 20.21% |
| Cn1c(=O)c(Oc2ccc(F)cc2F)cc2cnc(NC3CCC(O)CC3)nc21 (stereo not shown) [SJ000581046-1] | -0.7465% | 1.519% | -4.641% | 5.265% | -2.545% | 2.264% | 1.486% | 1.601% |
| CC(C)(O)CCc1cccc(C(=O)c2cnn(-c3ccc(F)cc3)c2N)c1 [SJ000581047-1] | -0.34% | 3.158% | -5.065% | 1.391% | 5.394% | -2.635% | -1.69% | 1.278% |
| Cc1[nH]n(-c2ccccc2)c(=O)c1C(=O)c1ccccc1 [SJ000581048-1] | -2.724% | -0.3361% | -9.373% | 3.222% | 1.313% | -0.7202% | -1.767% | 0.679% |
| O=C1NC(=NCc2c(Cl)cccc2Cl)S/C1=C\c1ccc2ncccc2c1 [SJ000581049-1] | -1.821% | 1.964% | -7.089% | -0.3937% | 2.314% | 5.41% | 5.37% | 1.063% |
| COc1cccc(C2=C(c3cn(C)c4ccccc34)C(=O)NC2=O)c1 [SJ000581051-1] | 1.602% | 5.285% | -3.208% | 11.8% | 3.466% | -2.854% | 1.318% | -0.8075% |
| Cc1nc2sc3c(N)ncnc3c2c(C)c1C [SJ000581052-1] | -2.527% | 0.5709% | -9.059% | 5.518% | 0.007081% | 1.552% | 0.3678% | 0.8474% |
| Cn1cc(C2=C(n3ccc4ccccc43)C(=O)NC2=O)c2ccccc21 [SJ000581055-1] | -2.255% | -0.4303% | -4.048% | 24.92% | 4.23% | -2.193% | -2.803% | -0.8882% |
| CC(=O)N[C@@H](Cc1ccc(OP(=O)(O)O)cc1)C(=O)N[C@H]1CCC(=O)N2CCC[C@@H](C(=O)NCc3ccc(Cl)cc3)N2C1=O [SJ000581056-1] | -2.949% | -0.4557% | -8.834% | 0.8967% | 0.4986% | -1.499% | -1.276% | -0.961% |
| C[C@H](CS(C)(=O)=O)Nc1ncc2cc(Oc3ccc(F)cc3F)c(=O)n(C)c2n1 [SJ000581059-1] | -0.5733% | 5.493% | -5.286% | 14.97% | 4.304% | 2.611% | -1.998% | 1.6% |
| C[C@@H](CS(C)(=O)=O)Nc1ncc2cc(Oc3ccc(F)cc3F)c(=O)n(C)c2n1 [SJ000581059-2] | 3.472% | 9.03% | 2.224% | 4.121% | 1.072% | 2.114% | 1.811% | -1.135% |
| Fc1ccc(-c2c(-c3ccncc3)n(CCN3CCOCC3)c3cccnc23)cc1 [SJ000581060-1] | -0.5528% | 4.186% | -1.956% | 10.61% | 2.843% | 3.3% | -2.603% | 0.7421% |
| Cn1c(=O)c(Oc2ccccc2F)cc2cnc(NC3CCOCC3)nc21 [SJ000581061-1] | 0.7758% | 6.564% | -2.528% | 11.16% | 1.876% | 1.19% | -1.076% | 3.823% |
| Cn1c(=O)c(Oc2ccc(F)cc2F)cc2cnc(NC3CCS(=O)(=O)CC3)nc21 [SJ000581062-1] | -0.9313% | 3.904% | -3.198% | 0.18% | -1.245% | 4.309% | -0.445% | 1.685% |
| O=C1NC(=NCC(CO)c2ccccc2)S/C1=C\c1ccc2ncccc2c1 (stereo not shown) [SJ000581063-1] | 53.98% | 4.562% | -3.487% | 1.779% | 4.364% | 16.39% | 2.415% | 3.168% |
| Cn1cc(C2=C(c3cn(C)c4ccc(OCc5ccccc5)cc34)C(=O)NC2=O)c2ccccc21 [SJ000581064-1] | 0.7902% | 0.1859% | -3.355% | 7.008% | 2.588% | -0.03201% | -0.8092% | -0.03114% |
| O=C1C(c2c[nH]c3ccccc23)=C(c2c[nH]c3ccccc23)C(=O)N1O [SJ000581067-1] | 1.166% | 0.7451% | -5.714% | 18.95% | -0.1746% | -1.683% | 0.2373% | -0.2137% |
